Laboratory results taken from US11078189B2, “Pharmaceutical compounds” (REVIRAL LIMITED, priority 2017, dated 2021).
Read-outs that look alike come from different tables or passages of the source.

Columns and labels:
CYP2B6 = biological target: T1, CYP2B6 (Homo sapiens, UniProt P20813); test: Cytochrome P450 inhibition CYP2B6; type: in vitro ADME; details: human liver microsomes
T1 construct: from tissue; host or cells: human liver microsomes
T1 sequence (P20813 1-491): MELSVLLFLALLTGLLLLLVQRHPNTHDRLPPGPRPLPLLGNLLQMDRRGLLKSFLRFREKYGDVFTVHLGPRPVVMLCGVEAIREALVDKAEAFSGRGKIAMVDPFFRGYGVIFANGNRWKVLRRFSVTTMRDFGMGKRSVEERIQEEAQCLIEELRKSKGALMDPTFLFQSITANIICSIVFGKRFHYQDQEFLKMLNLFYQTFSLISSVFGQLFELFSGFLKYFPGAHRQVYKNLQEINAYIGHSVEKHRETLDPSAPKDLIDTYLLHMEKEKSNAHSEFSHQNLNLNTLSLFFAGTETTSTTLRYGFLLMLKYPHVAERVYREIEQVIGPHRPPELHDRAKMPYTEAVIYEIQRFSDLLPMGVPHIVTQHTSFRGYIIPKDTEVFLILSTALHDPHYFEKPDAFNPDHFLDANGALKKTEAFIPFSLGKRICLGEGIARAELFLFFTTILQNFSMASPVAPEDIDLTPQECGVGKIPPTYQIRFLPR
Method: (§1) Test compound (0.1, 0.25, 1, 2.5, 10, 25 μM in DMSO; final DMSO concentration 0.3%) was incubated with human liver microsomes (0.25 mg/mL) and NADPH (1 mM) in the presence of a cytochrome P450 isoform-specific probe substrate. The metabolites were monitored by LC-MS/MS and a decrease in the formation of the metabolite compared to the vehicle control used to calculate an IC50 value (test compound concentration which produces 50% inhibition). A cytochrome P450 isoform-specific selective inhibitor was screened alongside the test compounds as a positive control.

CYP2C9 = biological target: T2, CYP2C9 (Homo sapiens, UniProt P11712); test: Cytochrome P450 inhibition CYP2C9; type: in vitro ADME; details: human liver microsomes
T2 construct: from tissue; host or cells: human liver microsomes
Method: as §1

CYP1A2 = biological target: T3, CYP1A2 (Homo sapiens, UniProt P05177); test: Cytochrome P450 inhibition CYP1A2; type: in vitro ADME; details: human liver microsomes
T3 construct: from tissue; host or cells: human liver microsomes
T3 sequence (P05177 1-516): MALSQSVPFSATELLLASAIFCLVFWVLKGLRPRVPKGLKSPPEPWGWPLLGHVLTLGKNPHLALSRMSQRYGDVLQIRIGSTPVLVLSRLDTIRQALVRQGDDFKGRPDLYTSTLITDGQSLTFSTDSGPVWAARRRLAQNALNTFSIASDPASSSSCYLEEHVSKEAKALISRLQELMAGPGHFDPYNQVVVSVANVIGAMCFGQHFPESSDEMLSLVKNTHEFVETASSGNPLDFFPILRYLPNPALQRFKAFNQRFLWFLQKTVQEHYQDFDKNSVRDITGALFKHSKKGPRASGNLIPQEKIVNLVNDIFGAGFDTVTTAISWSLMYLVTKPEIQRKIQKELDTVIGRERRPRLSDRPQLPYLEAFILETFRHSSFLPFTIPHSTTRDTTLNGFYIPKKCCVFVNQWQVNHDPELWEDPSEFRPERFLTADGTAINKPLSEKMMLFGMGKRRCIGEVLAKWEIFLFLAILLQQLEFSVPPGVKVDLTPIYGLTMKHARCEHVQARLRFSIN
Method: as §1

[1] = Liver microsomal stability, rat; type: in vitro ADME; details: pooled liver microsomes, pH 7.4; rat liver microsomes 0.5 mg/mL; 3 μM compound; read-out: Liver Microsoinal Stability t1/2, rat
Method: Pooled liver microsomes are purchased from a reputable commercial supplier and stored at −80° C. prior to use. Microsomes (final protein concentration 0.5 mg/mL), 0.1 M phosphate buffer pH 7.4 and test compound (final substrate concentration 3 μM; final DMSO concentration 0.25%) are pre-incubated at 37° C. prior to the addition of NADPH (final concentration 1 mM) to initiate the reaction. The final incubation volume is 50 uL. A control incubation is included for each compound tested where 0.1 M phosphate buffer pH 7.4 is added instead of NADPH (minus NADPH). Two control compounds are included with each species. All incubations are performed singularly for each test compound. Each compound is incubated for 0, 5, 15, 30 and 45 min. The control (minus NADPH) is incubated for 45 min only. The reactions are stopped by transferring 20 μL of incubate to 60 μL MeOH at the appropriate time points. The termination plates are centrifuged at 2,500 rpm for 20 min at 4° C. to precipitate the protein. Following protein precipitation, the sample supernatants are combined in cassettes of up to 4 compounds, internal standard is added and samples analysed by LC-MS/MS. From a plot of In peak area ratio (compound peak area/internal standard peak area) against time, the gradient of the line is determined. Subsequently, half-life and intrinsic clearance are calculated.

RSV A2 VR-1540 = test: RSV plaque reduction assay; type: cell-based; details: human respiratory syncytial virus; Strain A2; n = 1; HEp-2 cells
Method: HEp-2 cells (ATCC, CCL23) were passaged in flasks and seeded in 96-well plates in DMEM containing antibiotics and supplemented with 10% FBS. During inoculation and subsequent incubation, cells were cultured in DMEM containing 3% FBS. 100 plaque forming unit (PFU)/well of RSV (RSV A2 VR-1540) was mixed with ten serial dilutions of compound. Subsequently, 100 μL of the virus/compound mixtures was added to confluent HEp-2 cell monolayers. The cells and virus/compound mixtures were incubated at 35° C. in a humidified 5% CO2 incubator for 1 day.
Cells were washed twice with PBS before adding 50% v/v EtOH/MeOH, and then stored at −20° C. On the day of the staining, fixative was first removed from the plates. Plates were washed 3× with PBS. A pre-titrated amount of the primary antibody was added in 60 μL PBS/2% milk powder, and plates incubated for 1 h at […]. The plates were washed 3× with PBS/0.05% Tween20 before addition of goat anti-mouse horse radish peroxidase in 60 μL PBS/2% milk powder, and incubated for 1 h at rt. Following three wash steps with PBS/0.05% Tween20, 60 μL ready-to-use TrueBlue was added and plates were incubated at rt for 10-15 min before adding MilliQ water. Plates were washed once with water, incubated for 30-60 min and after removal of water, air-dried in the dark.
Plates were scanned and analyzed using the Immunospot S6 UV analyzer, which is equipped with BioSpot analysis software for counting immunostained plaques (virospots). Plaque counts were used to calculate % infection relative to the mean of the spot count (SC) in the virus control wells for RSV. IC50/IC90 values were calculated as 50% or 90% reduction in signal, respectively, by interpolation of inhibition curves fitted with a 4-parameter nonlinear regression with a variable slope in GraphPad 5.0 (Prism).

CYP3A4 = biological target: T4, CYP3A4 (Homo sapiens, UniProt P08684); test: Cytochrome P450 inhibition CYP3A4; type: in vitro ADME; details: human liver microsomes
T4 construct: from tissue; host or cells: human liver microsomes
Method: as §1

T4 sequence (P08684 whole entry): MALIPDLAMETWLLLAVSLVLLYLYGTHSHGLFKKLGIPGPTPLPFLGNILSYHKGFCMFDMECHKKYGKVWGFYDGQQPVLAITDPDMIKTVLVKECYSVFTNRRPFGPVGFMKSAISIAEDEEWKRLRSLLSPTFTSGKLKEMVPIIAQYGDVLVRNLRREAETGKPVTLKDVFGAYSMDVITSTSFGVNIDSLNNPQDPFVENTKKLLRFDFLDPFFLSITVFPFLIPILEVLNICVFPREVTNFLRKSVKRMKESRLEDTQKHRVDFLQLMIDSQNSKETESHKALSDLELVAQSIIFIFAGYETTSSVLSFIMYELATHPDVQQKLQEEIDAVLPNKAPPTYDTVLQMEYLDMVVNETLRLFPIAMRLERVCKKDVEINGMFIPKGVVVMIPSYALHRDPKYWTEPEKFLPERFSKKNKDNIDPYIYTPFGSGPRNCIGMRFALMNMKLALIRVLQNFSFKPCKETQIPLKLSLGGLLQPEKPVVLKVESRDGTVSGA
T2 sequence (P11712 whole entry): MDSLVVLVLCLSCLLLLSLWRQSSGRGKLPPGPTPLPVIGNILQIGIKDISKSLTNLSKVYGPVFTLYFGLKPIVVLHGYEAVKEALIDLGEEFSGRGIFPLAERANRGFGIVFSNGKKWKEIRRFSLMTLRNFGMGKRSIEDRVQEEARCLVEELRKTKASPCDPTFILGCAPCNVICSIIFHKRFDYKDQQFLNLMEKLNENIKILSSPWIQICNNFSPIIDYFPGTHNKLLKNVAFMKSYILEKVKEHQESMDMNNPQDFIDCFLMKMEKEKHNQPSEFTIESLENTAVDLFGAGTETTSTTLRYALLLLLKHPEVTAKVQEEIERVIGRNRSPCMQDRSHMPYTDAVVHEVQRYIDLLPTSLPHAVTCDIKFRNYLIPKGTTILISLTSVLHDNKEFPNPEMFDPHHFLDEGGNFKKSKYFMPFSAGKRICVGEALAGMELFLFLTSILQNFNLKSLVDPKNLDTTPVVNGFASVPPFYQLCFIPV

Row | Compound | IC50 (CYP2B6) [nM] | IC50 (CYP2C9) [nM] | IC50 (CYP1A2) [nM] | half-life at 3 μM [1] [min] | IC50 (RSV A2 VR-1540) [nM] | IC90 (RSV A2 VR-1540) [nM] | IC50 (CYP3A4; substrate = midazolam, read-out: Cytochrome P450 inhibition IC50 CYP3A4 (midazolam)) [nM] | IC50 (CYP3A4; substrate = testosterone, read-out: Cytochrome P450 inhibition IC50 CYP3A4 (testosterone)) [nM]
1 | CS(=O)(=O)N1CCC(n2c(CN3C(=O)C4(CC4)c4ccc(F)cc43)nc3cc(Cl)ccc32)CC1 [Compound 33, 1′-{[5-Chloro-1-(1-methanesulfonylpiperidin-4-yl)-1H-1,3-benzodiazol-2-yl]methyl}-6′-fluoro-1′,2′-dihydrospiro[cyclopropane-1,3′-indole]-2′-one] | > 25000 | > 25000 | > 25000 | 14.8 | 0.49 | 4.4 | 674 | 3940
2 | CCS(=O)(=O)N1CCC(n2c(CN3C(=O)C4(CC4)c4ccc(F)cc43)nc3cc(Cl)ccc32)CC1 [Compound 35, 1′-({5-Chloro-1-[1-(ethanesulfonyl)piperidin-4-yl]-1H-1,3-benzodiazol-2-yl}methyl)-6′-fluoro-1′,2′-dihydrospiro[cyclopropane-1,3′-indole]-2′-one] |  |  |  | 5.5 | 0.87 | 5.2 |  | 
